Results on 2 compounds are retold here after US6730667B2, “Iontophoresis disc pain blocker” (priority 2001, dated 2004).

The assay deals with overactive nerve fibers. The experiment in a line: Iontophoretic delivery, practical patient experience. Type of assay: in vivo, human. The conditions noted are these: ketamine at 2 to 4% or higher, clonidine at 0.2 to 0.4%, unbuffered; positive polarity. On the procedure:
Once the desired nerve or nerves are identified, a preselected composition of pharmaceuticals 14 is prepared for an administration step 16. Administration may be topical, by methods including gel 18 or spray 20. Iontophoresis is a preferred method. The composition is applied to a patch 22 for iontophoretic administration. Suitable patch structures include both single and multi-layered gel matrix discs. For example, a patch may be arranged with one or more layers of pH buffered electrolytes between drug layers. Ionotphoresis 24 delivers the drugs by application of tiny unipolar or switchable bipolar micro amperage current to the gel disc over the next 24 to 36 plus hours, producing blockade to the excessive nerve firing.
These are ketamine, which is an NMDA receptor blocker, at 2 to 4% or higher, and clonidine, which is an […], at 0.2 to 0.4% concentration, unbuffered. Both have positive polarity, and are positive charged. Selection of positive polarity would push the drug along the pathway of least resistance, finding the involved overactive nerve fibers; and pain blockade would occur.

Molecules are shown by their SMILES.

With `Clc1cccc(Cl)c1N=C1NCCN1` [clonidine], the “suitability for delivery by iontophoresis” value was “work well”.

On to `CNC1(c2ccccc2Cl)CCCCC1=O` (centres unmarked) [ketamine], for which the “suitability for delivery by iontophoresis” value was “work well”.
